In patent US20160311791A1, “NOVEL TRICYCLIC CALCIUM SENSING RECEPTOR ANTOGONISTS FOR THE TREATMENT OF OSTEOPOSOSIS” (MERCK SHARP & DOHME CORP., priority 2013, published 2016):
Where two headings read alike, the source gives them in different places.

Key:
serum calcium = assay: In vivo pharmacodynamic effects: total serum calcium (arsenazo III); settings: rat, oral gavage
Description: (§1) Procedures for In Vivo Pharmacodynamic Effects
(§2) The objective of these studies was to assess the effect of compounds on stimulating PTH release and increasing calcium secretion in the rat. Male Sprague-Dawley rats (3-4 months old) were equipped with jugular vein cannulae (JVC) by surgical procedure. The rats were given the compound by oral gavage. Blood was sampled from the JVC at 15 minutes, 30 minutes, 60 minutes, 120 minutes, 240 minutes, 420 minutes, and 24 hrs post compound administration. Plasma was separated and used for a PTH ELISA assay and a calcium concentration assay. After the last blood sampling, the rats were sacrificed under anesthesia by inhalation of CO2. All procedures were conducted in compliance with the Animal Welfare Act, the Guide for the Care and Use of Laboratory Animals and the recommendations of the AVMA Panel on Euthanasia.
(§3) Rat plasma samples were used for measuring serum PTH levels: The Rat Intact PTH 1-84 ELISA kit (Immutopics Cat#60-2500) was used according to the manufacturer's instructions. Total serum calcium determination was made using a calcium arsenazo III reagent (Fisher Scientific Cat # Pointe Scientific Calcium (Arsenazo III) Reagents; Mfr. No.: C7529-500; Qty.: 500 mL. Mfr. No.: C7529-500, Part #23666172) according to the manufacturer's instructions. For these experiments, 2 μl of sample was added to 198 μl of reagent, mixed, and read at 650 nm.

human CaSR = target: T1, human CaSR (Homo sapiens, UniProt P41180); assay: CaSR FLIPR assay (calcilytic activity); type: cell-based; set-up: expressed in transfected cells
T1 sequence (P41180 20-1078): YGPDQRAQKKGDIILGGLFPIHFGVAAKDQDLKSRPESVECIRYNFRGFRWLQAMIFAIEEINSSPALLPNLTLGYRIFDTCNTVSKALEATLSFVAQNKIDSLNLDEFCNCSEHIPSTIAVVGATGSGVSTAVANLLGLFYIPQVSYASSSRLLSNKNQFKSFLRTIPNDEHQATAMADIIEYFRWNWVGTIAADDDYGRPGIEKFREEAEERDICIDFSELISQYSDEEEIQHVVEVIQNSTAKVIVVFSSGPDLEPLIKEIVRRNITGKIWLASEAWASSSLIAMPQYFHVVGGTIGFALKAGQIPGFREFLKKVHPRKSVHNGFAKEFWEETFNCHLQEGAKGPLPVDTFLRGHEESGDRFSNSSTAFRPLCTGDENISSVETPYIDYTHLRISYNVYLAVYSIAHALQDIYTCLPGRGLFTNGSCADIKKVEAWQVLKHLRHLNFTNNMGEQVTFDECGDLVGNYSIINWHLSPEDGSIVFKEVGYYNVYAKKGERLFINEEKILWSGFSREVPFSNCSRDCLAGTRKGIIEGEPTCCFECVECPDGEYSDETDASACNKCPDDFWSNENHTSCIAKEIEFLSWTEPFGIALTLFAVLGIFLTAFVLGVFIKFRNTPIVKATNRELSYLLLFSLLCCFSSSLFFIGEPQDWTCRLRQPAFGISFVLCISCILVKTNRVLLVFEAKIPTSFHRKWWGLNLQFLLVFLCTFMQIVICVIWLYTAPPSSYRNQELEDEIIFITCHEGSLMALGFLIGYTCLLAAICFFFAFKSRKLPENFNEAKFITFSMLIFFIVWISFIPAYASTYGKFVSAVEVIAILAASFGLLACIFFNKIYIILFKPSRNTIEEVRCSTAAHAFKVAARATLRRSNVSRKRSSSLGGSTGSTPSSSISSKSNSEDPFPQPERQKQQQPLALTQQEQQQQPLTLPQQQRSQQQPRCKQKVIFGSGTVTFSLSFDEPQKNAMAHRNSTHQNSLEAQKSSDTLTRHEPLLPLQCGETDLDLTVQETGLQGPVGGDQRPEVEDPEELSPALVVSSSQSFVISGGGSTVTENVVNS
Method in brief: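 Calcium flux in HEK293 cells stably expressing human CaSR, loaded with Calcium 4 dye for 1 h at 37° C, read on FLIPR. Compounds in 0.5% DMSO (10-point, 3-fold series) added first, then CaCl2 at 1 mM final. Buffer: 20 mM HEPES pH 7.4, HBSS, 0.4 mM CaCl2, Mg salts.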

[1] = Pharmacokinetic evaluation in rats; type: in vivo, rat; settings: for clearance / Cmax / bioavailability / half-life: rat, plasma, dose and route not given; for clearance: read-out: Clp (plasma clearance); for Cmax: read-out: Cmax (maximum observed plasma concentration); for bioavailability: read-out: F % (bioavailability); for half-life: read-out: t1/2 (plasma half-life) (converted)
PTH release = assay: In vivo pharmacodynamic effects: PTH (Rat Intact PTH 1-84 ELISA); settings: oral gavage
Description: as §1, §2, §3

[2] = HEK293 cells stably expressing human recombinant CaSR, 1 mM CaCl2 agonist, Tables 1-24, read-out: FLIPR ASSAY IC50
[3] = summary table, read-out: FLIPR CaSR (IC50)

In the case of `C[C@@H](OC[C@H](O)CNC(C)(C)Cc1ccc2ccccc2c1)c1cccc2c1[C@@H]1[C@H](O2)[C@H]1C(=O)O` [Example 5-1], the “Maximum Increase in Calcium (mg/dl)” value (serum calcium; at 10 mpk) is reported as 2.3 (at mg/dl, the IC50 (human CaSR; [2]) is reported as 9 nM and the IC50 (human CaSR; [3]) is reported as 9 nM. The “half-lives in rats” value [1] was “short half-lives”, the “tmax” value [1] was “less than an hour” and the clearance [1] was 52.5 mL/min/kg. For the same compound, the Cmax [1] was 690 nM, the bioavailability [1] was 7% and the half-life [1] was 1.3 h. For the same compound, the “Maximum Change in PTH (fold)” value (PTH release; at 10 mpk) was 8 (at fold.

With `C[C@@H](OC[C@H](O)CNC(C)(C)Cc1ccc2ccccc2c1)c1cccc2c1O[C@@H]1[C@@H](C(=O)O)[C@H]21` [Example 1-1] the “Maximum Increase in Calcium (mg/dl)” value (serum calcium; at 30 mpk) was 1.5 (at mg/dl, the IC50 (human CaSR; [2]) was 26 nM and the IC50 (human CaSR; [3]) was 22 nM. For the same compound, the “half-lives in rats” value [1] was “short half-lives”, the “tmax” value [1] was “less than an hour” and the clearance [1] was 11 mL/min/kg. It also gave a Cmax [1] of 2400 nM, a bioavailability [1] of 24% and a half-life [1] of 1.7 h. For the same compound, the “Maximum Change in PTH (fold)” value (PTH release; at 30 mpk) was 5.8 (at fold.

With `CSc1ccc(CC(C)(C)NC[C@@H](O)CO[C@H](C)c2ccc(C)c3c2C2[C@H](O3)[C@H]2C(=O)O)cc1F` (stereo partly drawn) [Example 8-24] the “Maximum Increase in Calcium (mg/dl)” value (serum calcium; at 30 mpk) was 1 (at mg/dl, the IC50 (human CaSR; [2]) was 21 nM and the IC50 (human CaSR; [3]) was 20 nM. The “half-lives in rats” value [1] was “short half-lives”, the “tmax” value [1] was “less than an hour” and the clearance [1] was 40 mL/min/kg. For the same compound, the Cmax [1] was 160 nM, the bioavailability [1] was 7% and the half-life [1] was 1.8 h. The “Maximum Change in PTH (fold)” value (PTH release; at 30 mpk) was 4 (at fold.
